In publication PMC11249646, “Small-Molecule Disruptors of the Interaction between Calcium- and Integrin-Binding Protein 1 and Integrin αIIbβ3 as Novel Antiplatelet Agents” (ACS Pharmacology & Translational Science, 2024):

Molecular target: T1, CIB1 and αIIb interaction (CIB1-GST : F-αIIb peptide) (Homo sapiens, UniProt Q99828)
T1 construct: made in house; host or cells: BL-21 plus RIL cells (E. coli)
T1 sequence (Q99828 1-191): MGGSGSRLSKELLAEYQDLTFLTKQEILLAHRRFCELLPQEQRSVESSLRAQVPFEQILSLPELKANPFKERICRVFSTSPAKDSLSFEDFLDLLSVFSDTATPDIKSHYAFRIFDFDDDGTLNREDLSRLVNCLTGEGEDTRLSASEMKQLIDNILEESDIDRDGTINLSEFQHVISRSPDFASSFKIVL
Assay: FP assay, 1536-well qHTS format (primary and confirmatory screen)
Assay type: binding
Details: confirmatory screen

| Compound | Efficacy (%) (confirmatory screen) | CONFIRMATORY SCREEN Efficacy (%) |
| --- | --- | --- |
| Cc1cc(/N=N/c2ccc(S(=O)(=O)Nc3ccccn3)cc2)c(N)cc1O [NCGC00356068-01] | -64% | – |
| O=C(O)C(F)(F)F.O=C(O)c1csc(-n2nc(-c3ccc(F)c(F)c3)c3cccc(O)c32)n1 [NCGC00356386-01] | – | -21% |
| NC(=O)c1ccc(Cc2c(-c3cccc(-c4ccccc4)c3)nn(-c3nc(C(=O)O)cs3)c2O)cc1.O=C(O)C(F)(F)F [NCGC00356638-01] | -125% | – |
| O=C(NC1=CC(=O)c2ccccc2C1=O)c1ccccc1.O=C(O)C(F)(F)F [NCGC00357425-01] | -159% | – |
| CN1CCN([C@H]2CC[C@H](n3cc(-c4ccc(Oc5ccccc5)cc4)c4c(N)ncnc43)CC2)CC1.Cl [NCGC00370980-02] | -44% | – |

Same assay, conditions: confirmatory screen, YES/NO

| Compound | Confirm? (confirmatory screen) |
| --- | --- |
| Cc1cc(/N=N/c2ccc(S(=O)(=O)Nc3ccccn3)cc2)c(N)cc1O [NCGC00356068-01] | YES |
| NC(=O)c1ccc(Cc2c(-c3cccc(-c4ccccc4)c3)nn(-c3nc(C(=O)O)cs3)c2O)cc1.O=C(O)C(F)(F)F [NCGC00356638-01] | YES |
| O=C(NC1=CC(=O)c2ccccc2C1=O)c1ccccc1.O=C(O)C(F)(F)F [NCGC00357425-01] | YES |
| CN1CCN([C@H]2CC[C@H](n3cc(-c4ccc(Oc5ccccc5)cc4)c4c(N)ncnc43)CC2)CC1.Cl [NCGC00370980-02] | YES |

Same assay, conditions: confirmatory screen, qHTS curve class

| Compound | CONFIRMATORY SCREEN Curve Class |
| --- | --- |
| O=C(O)C(F)(F)F.O=C(O)c1csc(-n2nc(-c3ccc(F)c(F)c3)c3cccc(O)c32)n1 [NCGC00356386-01] | 4 |

Same assay, conditions: confirmatory screen, qHTS curve class; negative sign = inhibitory curve

| Compound | Curve Class (confirmatory screen) |
| --- | --- |
| Cc1cc(/N=N/c2ccc(S(=O)(=O)Nc3ccccn3)cc2)c(N)cc1O [NCGC00356068-01] | -2.2 |
| NC(=O)c1ccc(Cc2c(-c3cccc(-c4ccccc4)c3)nn(-c3nc(C(=O)O)cs3)c2O)cc1.O=C(O)C(F)(F)F [NCGC00356638-01] | -2.1 |
| O=C(NC1=CC(=O)c2ccccc2C1=O)c1ccccc1.O=C(O)C(F)(F)F [NCGC00357425-01] | -1.1 |
| CN1CCN([C@H]2CC[C@H](n3cc(-c4ccc(Oc5ccccc5)cc4)c4c(N)ncnc43)CC2)CC1.Cl [NCGC00370980-02] | -2.2 |

Same assay, conditions: confirmatory screen; read-out: IC50 [μM] (confirmatory screen)

| Compound | IC50 |
| --- | --- |
| Cc1cc(/N=N/c2ccc(S(=O)(=O)Nc3ccccn3)cc2)c(N)cc1O [NCGC00356068-01] | 39.8 µM |
| NC(=O)c1ccc(Cc2c(-c3cccc(-c4ccccc4)c3)nn(-c3nc(C(=O)O)cs3)c2O)cc1.O=C(O)C(F)(F)F [NCGC00356638-01] | 70.8 µM |
| O=C(NC1=CC(=O)c2ccccc2C1=O)c1ccccc1.O=C(O)C(F)(F)F [NCGC00357425-01] | 11.2 µM |

Same assay, conditions: qHTS FP screen hits, Table S2; negative = inhibition

| Efficacy (%) | Compound |
| --- | --- |
| -50% | Cc1cc(/N=N/c2ccc(S(=O)(=O)Nc3ccccn3)cc2)c(N)cc1O [NCGC00356068-01] |
| -56% | CN1CCN([C@H]2CC[C@H](n3cc(-c4ccc(Oc5ccccc5)cc4)c4c(N)ncnc43)CC2)CC1.Cl [NCGC00370980-02] |

| Compound | Efficacy (%) |
| --- | --- |
| O=C(O)C(F)(F)F.O=C(O)c1csc(-n2nc(-c3ccc(F)c(F)c3)c3cccc(O)c32)n1 [NCGC00356386-01] | -22% |

Same assay, conditions: qHTS FP screen hits, Table S2; one class per curve where COUNT > 1; negative sign = inhibitory curve

| Curve Class | Compound |
| --- | --- |
| -2.2 | Cc1cc(/N=N/c2ccc(S(=O)(=O)Nc3ccccn3)cc2)c(N)cc1O [NCGC00356068-01] |
| -2.2 | CN1CCN([C@H]2CC[C@H](n3cc(-c4ccc(Oc5ccccc5)cc4)c4c(N)ncnc43)CC2)CC1.Cl [NCGC00370980-02] |

Same assay, conditions: qHTS FP screen hits, Table S2; read-out: IC50

| IC50 | Compound |
| --- | --- |
| 35.5 µM | Cc1cc(/N=N/c2ccc(S(=O)(=O)Nc3ccccn3)cc2)c(N)cc1O [NCGC00356068-01] |
| 50.1 µM | CN1CCN([C@H]2CC[C@H](n3cc(-c4ccc(Oc5ccccc5)cc4)c4c(N)ncnc43)CC2)CC1.Cl [NCGC00370980-02] |

| Compound | IC50 |
| --- | --- |
| O=C(O)C(F)(F)F.O=C(O)c1csc(-n2nc(-c3ccc(F)c(F)c3)c3cccc(O)c32)n1 [NCGC00356386-01] | 3.2 µM |

Same assay, conditions: qHTS primary screen hits, Table S2; negative = inhibition

| Compound | Efficacy (%) |
| --- | --- |
| NC(=O)c1ccc(Cc2c(-c3cccc(-c4ccccc4)c3)nn(-c3nc(C(=O)O)cs3)c2O)cc1.O=C(O)C(F)(F)F [NCGC00356638-01] | -59% |
| O=C(NC1=CC(=O)c2ccccc2C1=O)c1ccccc1.O=C(O)C(F)(F)F [NCGC00357425-01] | -92% |

Same assay, conditions: qHTS primary screen hits, Table S2; negative sign = inhibitory curve

| Compound | Curve Class |
| --- | --- |
| O=C(NC1=CC(=O)c2ccccc2C1=O)c1ccccc1.O=C(O)C(F)(F)F [NCGC00357425-01] | -1.1 |

Same assay, conditions: qHTS primary screen hits, Table S2; negative sign = inhibitory curve; several classes where COUNT > 1

| Compound | Curve Class |
| --- | --- |
| NC(=O)c1ccc(Cc2c(-c3cccc(-c4ccccc4)c3)nn(-c3nc(C(=O)O)cs3)c2O)cc1.O=C(O)C(F)(F)F [NCGC00356638-01] | -2.2 |

Same assay, conditions: qHTS primary screen hits, Table S2; read-out: IC50

| Compound | IC50 |
| --- | --- |
| NC(=O)c1ccc(Cc2c(-c3cccc(-c4ccccc4)c3)nn(-c3nc(C(=O)O)cs3)c2O)cc1.O=C(O)C(F)(F)F [NCGC00356638-01] | 56.2 µM |
| O=C(NC1=CC(=O)c2ccccc2C1=O)c1ccccc1.O=C(O)C(F)(F)F [NCGC00357425-01] | 25.1 µM |

Molecular target: T2, GST-CIB1 : F-scrambled peptide (Homo sapiens, UniProt Q99828)
T2 construct: made in house; host or cells: BL-21 plus RIL cells (E. coli)
T2 sequence (Q99828 1-191): T1 sequence (Q99828 1-191)
Assay: FP scrambled-peptide counter screen, 1536-well format
Assay type: binding
Details: counterscreen

| Compound | Efficacy (%) (counterscreen) | COUNTERSCREEN Efficacy (%) |
| --- | --- | --- |
| Cc1cc(/N=N/c2ccc(S(=O)(=O)Nc3ccccn3)cc2)c(N)cc1O [NCGC00356068-01] | -44% | – |
| O=C(O)C(F)(F)F.O=C(O)c1csc(-n2nc(-c3ccc(F)c(F)c3)c3cccc(O)c32)n1 [NCGC00356386-01] | – | 0% |
| NC(=O)c1ccc(Cc2c(-c3cccc(-c4ccccc4)c3)nn(-c3nc(C(=O)O)cs3)c2O)cc1.O=C(O)C(F)(F)F [NCGC00356638-01] | -60% | – |
| O=C(NC1=CC(=O)c2ccccc2C1=O)c1ccccc1.O=C(O)C(F)(F)F [NCGC00357425-01] | -113% | – |
| CN1CCN([C@H]2CC[C@H](n3cc(-c4ccc(Oc5ccccc5)cc4)c4c(N)ncnc43)CC2)CC1.Cl [NCGC00370980-02] | -17% | – |

Same assay, conditions: counterscreen, YES/NO

| Confirm? (counterscreen) | Compound |
| --- | --- |
| YES | CN1CCN([C@H]2CC[C@H](n3cc(-c4ccc(Oc5ccccc5)cc4)c4c(N)ncnc43)CC2)CC1.Cl [NCGC00370980-02] |

Same assay, conditions: counterscreen, qHTS curve class

| Compound | COUNTERSCREEN Curve Class |
| --- | --- |
| O=C(O)C(F)(F)F.O=C(O)c1csc(-n2nc(-c3ccc(F)c(F)c3)c3cccc(O)c32)n1 [NCGC00356386-01] | 4 |

Same assay, conditions: counterscreen, qHTS curve class; negative sign = inhibitory curve

| Compound | Curve Class (counterscreen) |
| --- | --- |
| Cc1cc(/N=N/c2ccc(S(=O)(=O)Nc3ccccn3)cc2)c(N)cc1O [NCGC00356068-01] | -1.2 |
| NC(=O)c1ccc(Cc2c(-c3cccc(-c4ccccc4)c3)nn(-c3nc(C(=O)O)cs3)c2O)cc1.O=C(O)C(F)(F)F [NCGC00356638-01] | -2.2 |
| O=C(NC1=CC(=O)c2ccccc2C1=O)c1ccccc1.O=C(O)C(F)(F)F [NCGC00357425-01] | -1.1 |
| CN1CCN([C@H]2CC[C@H](n3cc(-c4ccc(Oc5ccccc5)cc4)c4c(N)ncnc43)CC2)CC1.Cl [NCGC00370980-02] | 4 |

Same assay, conditions: counterscreen; read-out: IC50 [μM] (counterscreen)

| Compound | IC50 |
| --- | --- |
| Cc1cc(/N=N/c2ccc(S(=O)(=O)Nc3ccccn3)cc2)c(N)cc1O [NCGC00356068-01] | 44.7 µM |
| NC(=O)c1ccc(Cc2c(-c3cccc(-c4ccccc4)c3)nn(-c3nc(C(=O)O)cs3)c2O)cc1.O=C(O)C(F)(F)F [NCGC00356638-01] | 44.7 µM |
| O=C(NC1=CC(=O)c2ccccc2C1=O)c1ccccc1.O=C(O)C(F)(F)F [NCGC00357425-01] | 11.2 µM |
